Experimental data published in ChEMBL document CHEMBL4038308, “Lipophosphonoxins II: Design, Synthesis, and Properties of Novel Broad Spectrum Antibacterial Agents” (J Med Chem, 2017).
Converted amounts (≈) assume the structure as drawn. The source made the active and inactive calls. No cut-off for these calls is given here.

Tests used:
Pseudomonas aeruginosa = experiment: Antibacterial activity against Pseudomonas aeruginosa CCM 3955 after 24 hrs by microdilution method; type: functional; details: CCM 3955, 24 h
[1] = Pore forming activity across black lipid bilayer membranes assessed as induction of variation in membrane current by measuring pore conductance at 5 ug/ml
TERT-RPE1 = experiment: Cytotoxicity against human RPE1 cells assessed as disruption of cell membrane integrity after 4 hrs by CytoTox-ONE-based assay; details: tert-rpe1, 4 h
[2] = Chemical stability of compound at 50 to 500 mg/L at pH 8.8 after 24 hrs at room temperature by LC-MS analysis; type: physicochemical; details: buffer, pH 8.8, 24 h
[3] = Chemical stability of compound at 50 to 500 mg/L at pH 5 after 24 hrs at 37 degC by LC-MS analysis; type: physicochemical; details: buffer, pH 5, 24 h
Mus musculus [4] = experiment: Toxicity in ICR mouse assessed as mortality up to 2000 mg/kg, po administered as single dose measured for 2 weeks; type: organism-based; details: in vivo, 336 h
Bacillus subtilis = experiment: Antibacterial activity against Bacillus subtilis assessed as rupture of cell envelope at 10 mg/L after 10 mins by scanning electron microscopic analysis; type: functional
Mus musculus [5] = experiment: Toxicity in ICR mouse assessed as body weight loss up to 2000 mg/kg, po administered as single dose measured for 2 weeks; type: organism-based; details: in vivo, 336 h
BJ = experiment: Cytotoxicity against human BJ cells assessed as reduction in cell viability after 48 hrs by ATPlite reagent based assay
J774.A1 = experiment: Cytotoxicity against mouse J774A.1 cells assessed as damage to cell membrane by measuring propidium iodide intake at 5 mg/L by spectrofluorometric analysis; type: cell-based
HepG2 = experiment: Induction of apoptosis in human HepG2 cells assessed as caspase 3/7 activation up to 80 mg/L after 4 hrs by caspase-Glo 3/7 luminescent assay; type: cell-based; details: hepg2, 4 h
Streptococcus agalactiae = experiment: Antibacterial activity against Streptococcus agalactiae after 24 hrs by microdilution method; type: functional
Escherichia coli [6] = experiment: Induction of cytoplasmic membrane permeabilization in Escherichia coli CCM 3954 assessed as increase in propidium iodide fluorescence intensity at 5 mg/L by spectrofluorometric analysis; type: functional
Escherichia coli [7] = experiment: Antibacterial activity against Escherichia coli CCM 3954 after 24 hrs by microdilution method; type: functional; details: CCM 3954, 24 h

With `CCCCCCCCCCCCCCOP(=O)(CCN(CCCN)CCCN)OC[C@H]1O[C@@H](n2ccc(=O)[nH]c2=O)[C@H](O)[C@@H]1O` (some centres undefined) the MIC (Pseudomonas aeruginosa) was 0.78 µg/mL (≈ 1.18 µM), the Activity [1] was 73 to 151 pS and the Activity (TERT-RPE1) was “Non-Toxic”. The Stability [2] was “Stable”, the Stability [3] was “Stable” and the Activity (Mus musculus [4]) was “Non-Toxic”. The Activity (Bacillus subtilis) was “Active”, the Activity (Mus musculus [5]) was “Non-Toxic” and the Activity (BJ) was 30.7 mg/L. For the same molecule, the Activity (J774.A1) was “Non-Toxic”, the Activity (HepG2) was “Non-Toxic” and the MIC (Streptococcus agalactiae) was 3.13 µg/mL (≈ 4.73 µM). The Activity (Escherichia coli [6]) was “Active” and the MIC (Escherichia coli [7]) was 6.25 µg/mL (≈ 9.44 µM).
